# From patent publication US10646479B2, “Use of N-(4-iodobenzoylamino)-5-ethyl-1,2,3,6-tetrahydropyridine as a treatment for cancer” (Florida A&M University, priority 2018, dated 2020)
# Key:
# Type in all cases: cell-based, human
# [1] = test system: Ishikawa cell line; assay: CellTiter-Glo (CTG) luminescent cell viability assay, Ishikawa cells; conditions: for IC50: Ishikawa endometrial adenocarcinoma cells, CTG viability
# Method: (§1) This compound was evaluated against three types of cancer cells: Ishikawa, MDA-MB-231, and MCF-7 using the CellTiter-Glo (CTG) luminescent cell viability assay. Ishikawa cell line is an endometrial adenocarcinoma isolated from a person. MDA-MB-231 is a triple negative breast cancer cell line isolated from a person. MCF-7 is an estrogen receptor positive breast cancer cell line isolated from a person.
# [2] = test system: MDA-MB-231 cell line; assay: CellTiter-Glo (CTG) luminescent cell viability assay, MDA-MB-231 cells; conditions: for IC50: MDA-MB-231 triple negative breast cancer cells, CTG viability
# Method: as §1
# [3] = test system: MCF-7 cell line; assay: CellTiter-Glo (CTG) luminescent cell viability assay, MCF-7 cells; conditions: for IC50: MCF-7 estrogen receptor positive breast cancer cells, CTG viability
# Method: as §1
IC50 ([2]; Homo sapiens) [µM],"IC50 ([3]; Homo sapiens, MCF7) [µM]",IC50 [2] [µM],IC50 [3] [µM],Compound,IC50 ([1]; Homo sapiens) [µM],activity compared to Tamoxifen and 4-Hydroxytamoxifen ([1]; Ishikawa cell line),activity compared to Tamoxifen and 4-Hydroxytamoxifen ([2]; MDA-MB-231 cell line),activity compared to Tamoxifen and 4-Hydroxytamoxifen ([3]; MCF-7 cell line),IC50 [1] [µM]
5.67,1.25,,,"CCC1=CCCN(NC(=O)c2ccc(I)cc2)C1 [EH-1-40, N-(4-iodobenzoylamino)-5-ethyl-1,2,3,6-tetrahydropyridine]",2.93,better activity,better activity,better activity,
,,23.1,6.78,4-Hydroxytamoxifen [reference compound],,,,,26.4
